Laboratory results as given in patent publication US11220492B2, “Quinazoline-pyrazole derivatives for the treatment of cancer-related disorders” (ARCUS BIOSCIENCES, INC., priority 2017, dated 2022).

How the values were obtained:
[1] = molecular target: T1, A2BR (Homo sapiens, UniProt P29275); assay: A2BR potency (KB), Table 1; assay type: biochemical
T1 sequence (P29275 1-332): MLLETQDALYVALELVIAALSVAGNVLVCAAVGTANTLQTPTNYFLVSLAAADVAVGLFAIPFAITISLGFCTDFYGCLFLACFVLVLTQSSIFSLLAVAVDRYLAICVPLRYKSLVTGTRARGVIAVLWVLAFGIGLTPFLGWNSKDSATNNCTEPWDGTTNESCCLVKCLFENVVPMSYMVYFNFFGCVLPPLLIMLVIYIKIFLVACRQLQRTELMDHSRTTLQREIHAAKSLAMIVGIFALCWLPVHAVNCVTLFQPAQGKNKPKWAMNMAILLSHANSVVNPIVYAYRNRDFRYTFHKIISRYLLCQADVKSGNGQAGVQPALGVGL

[2] = molecular target: A2AR (Homo sapiens, UniProt P29274); assay: A2AR potency (KB), Table 1; assay type: biochemical; details: read-out: Potency: A2AR KB (A2A)
Chain of A2AR (P29274 whole entry): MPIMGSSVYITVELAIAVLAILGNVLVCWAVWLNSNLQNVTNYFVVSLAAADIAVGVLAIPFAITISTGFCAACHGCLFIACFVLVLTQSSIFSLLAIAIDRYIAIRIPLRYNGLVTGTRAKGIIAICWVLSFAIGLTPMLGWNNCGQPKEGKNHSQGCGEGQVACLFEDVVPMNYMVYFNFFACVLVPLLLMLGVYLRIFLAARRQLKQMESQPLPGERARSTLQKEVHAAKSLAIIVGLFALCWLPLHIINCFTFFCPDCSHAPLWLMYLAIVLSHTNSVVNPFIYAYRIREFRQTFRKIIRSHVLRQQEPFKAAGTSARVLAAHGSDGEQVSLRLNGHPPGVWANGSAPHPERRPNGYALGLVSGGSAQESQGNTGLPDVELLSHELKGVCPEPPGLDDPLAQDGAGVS

Kb [1] [nM] | Kb [2] [nM] | SMILES
< 100 | < 100 | Nc1nc(-c2cn(Cc3ccn[nH]3)nn2)c2cccc(F)c2n1
< 100 | < 100 | COc1ccc2c(-c3cn(Cc4ccn(C(C)(C)CO)n4)nn3)nc(N)nc2c1
< 100 | < 100 | COc1cccc2c(-c3cn(Cc4ccn(C(C)C)n4)nn3)nc(N)nc12
< 100 | < 100 | N#Cc1ccc2c(-c3cn(Cc4ccn(C5CC5)n4)nn3)nc(N)nc2c1
100 to 1000 | < 100 | CCOc1cccc2c(-c3cn(Cc4ccn(C5CC5)n4)nn3)nc(N)nc12
< 100 | < 100 | COc1cccc2c(-c3cn(Cc4ccn(CCN5CCOCC5=O)n4)nn3)nc(N)nc12
100 to 1000 | < 100 | COc1cccc2c(-c3cn(Cc4ccn(C(C)C(=O)O)n4)nn3)nc(N)nc12 (stereo not shown)
< 100 | < 100 | COc1cccc2c(-c3cn(Cc4ccn(C5CC5)n4)nn3)cc(N)nc12
100 to 1000 | < 100 | COc1cccc2c(-c3cn(Cc4ccn(CC(=O)N[C@H]5CCOC5)n4)nn3)nc(N)nc12
< 100 | < 100 | Nc1nc(-c2cn(Cc3ccn(C4CC4)n3)nn2)c2ccc(F)c(F)c2n1
100 to 1000 | < 100 | COc1c(F)ccc2c(-c3cn(Cc4ccn(C(C)(C)CO)n4)nn3)nc(N)nc12
 | < 100 | COc1cccc2c(-c3cn(Cc4ccn(CCO)n4)nn3)nc(N)nc12
< 100 | < 100 | CCn1ccc(Cn2cc(-c3nc(N)nc4c(OC)cccc34)nn2)n1
< 100 | < 100 | COc1cccc2c(-c3cn(Cc4ccnn4C)nn3)nc(N)nc12
< 100 | < 100 | COc1cccc2c(-c3cn(Cc4cc(C(C)(C)O)[nH]n4)nn3)nc(N)nc12
< 100 | < 100 | COc1cccc2c(-c3cn(Cc4ccn(CC(=O)NCC5(O)CC5)n4)nn3)nc(N)nc12
< 100 | < 100 | COc1cccc2c(-c3cn(Cc4ccn(CC(=O)N5CC(O)C5)n4)nn3)nc(N)nc12
100 to 1000 | < 100 | COc1cccc2c(-c3cn(Cc4ccn(CC(=O)N[C@@H]5CCOC5)n4)nn3)nc(N)nc12
< 100 | < 100 | COc1cccc2c(-c3cn(Cc4ccn(CC(C)(C)O)n4)nn3)nc(N)nc12
< 100 | < 100 | COc1cccc2c(-c3cn(Cc4ccn([C@H]5CCOC5)n4)nn3)nc(N)nc12
100 to 1000 | < 100 | CCOc1cccc2c(-c3cn(Cc4ccn(C(C)C)n4)nn3)nc(N)nc12

Kb [1] [nM] | Kb [2] [nM] | SMILES
100 to 1000 | < 100 | COc1cccc2c(-c3cn(Cc4ccnn4CC4CCCO4)nn3)nc(N)nc12 (stereo not shown)
100 to 1000 | < 100 | COc1cccc2c(-c3cn(Cc4ccn(CCN5CCCC5=O)n4)nn3)nc(N)nc12
< 100 | < 100 | COc1cccc2c(-c3cn(Cc4ccn(CC5CCOCC5)n4)nn3)nc(N)nc12
< 100 | < 100 | CC(C)n1ccc(Cn2cc(-c3nc(N)nc4c(Cl)cccc34)nn2)n1
< 100 | < 100 | COc1cccc2c(-c3cn(Cc4ccn(C(C)(C)CO)n4)nn3)nc(N)nc12
< 100 | < 100 | CC(C)n1ccc(Cn2cc(-c3cc(N)nc4c(F)cccc34)nn2)n1
< 100 | < 100 | COc1c(F)ccc2c(-c3cn(Cc4ccnn4C(C)C)nn3)nc(N)nc12
< 100 | < 100 | COc1cccc2c(-c3cn(Cc4ccnn4C(C)C)nn3)nc(N)nc12
< 100 | < 100 | COc1cccc2c(-c3cn(Cc4ccn([C@@H]5CCOC5)n4)nn3)nc(N)nc12
 | < 100 | COc1cccc2c(-c3cn(Cc4ccnn4CCO)nn3)nc(N)nc12
< 100 | < 100 | COc1cccc2c(-c3cn(Cc4ccn(CC(N)=O)n4)nn3)nc(N)nc12
< 100 | < 100 | COc1c(F)ccc2c(-c3cn(Cc4ccn(C(C)C)n4)nn3)nc(N)nc12
< 100 | < 100 | COCC(C)(C)n1ccc(Cn2cc(-c3nc(N)nc4c(OC)cccc34)nn2)n1
< 100 | < 100 | CC(C)n1nccc1Cn1cc(-c2nc(N)nc3c(Cl)cccc23)nn1
< 100 | < 100 | COc1cccc2c(-c3cn(Cc4ccn(C5CC5)n4)nn3)nc(N)nc12
< 100 | < 100 | COc1cccc2c(-c3cn(Cc4ccn(C(C)C(N)=O)n4)nn3)nc(N)nc12 (stereo not shown)
< 100 | < 100 | COc1cccc2c(-c3cn(Cc4cc[nH]n4)nn3)nc(N)nc12
100 to 1000 | 100 to 1000 | COc1cccc2c(-c3cn(Cc4ccn(CC(=O)O)n4)nn3)nc(N)nc12
< 100 | < 100 | CC(C)(CO)n1ccc(Cn2cc(-c3nc(N)nc4c(F)cccc34)nn2)n1
< 100 | < 100 | COc1cccc2c(-c3cn(Cc4ccn(C)n4)nn3)nc(N)nc12
< 100 | < 100 | CC(C)(O)Cn1ccc(Cn2cc(-c3cc(N)nc4c(F)cccc34)nn2)n1
